Reference: patent US8933096B2, “Antimicrobial agents” (Rugers, The State University of New Jersey, priority 2010, dated 2015)

Columns and labels:
[1] = system: methicillin-Sensitive Staphylococcus aureus (MSSA); experiment: Test C: planktonic antibacterial broth microdilution assay (MIC) vs MSSA; type: cell-based; conditions: 37° C., growth read after 24 to 48 hours at OD 600 nm
Protocol: (§1) Test C. Planktonic (Free-Living) Antibacterial Assay.
(§2) Planktonic antibacterial activity can be determined using a broth microdilution assay in which log-phase bacteria are grown at 37° C. in appropriate medium containing two-fold serial dilutions of a compound to yield a final concentration ranging from 256 to 0.1 μg/ml. For determination of minimal inhibitory concentration (MIC) values, bacterial growth is monitored after 24 to 48 hours by measuring optical density at 600 nm.

[2] = system: MRSA; experiment: Test C: planktonic antibacterial broth microdilution assay (MIC) vs MRSA; type: cell-based; conditions: Staphylococcus aureus, 37° C., growth read after 24 to 48 hours at OD 600 nm
Protocol: as §1, §2

[3] = biological target: T1, S. aureus FtsZ GTPase (Staphylococcus aureus, UniProt P0A031); experiment: Test B: FtsZ GTPase inhibition, colorimetric malachite green assay; type: biochemical; conditions: 1 mM GTP, 20 mM CaCl2, 2 μM FtsZ, 60 minutes at room temperature, read-out: IC50 (compound concentration at which FtsZ GTPase activity is inhibited by 50%)
T1 sequence (P0A031 1-390): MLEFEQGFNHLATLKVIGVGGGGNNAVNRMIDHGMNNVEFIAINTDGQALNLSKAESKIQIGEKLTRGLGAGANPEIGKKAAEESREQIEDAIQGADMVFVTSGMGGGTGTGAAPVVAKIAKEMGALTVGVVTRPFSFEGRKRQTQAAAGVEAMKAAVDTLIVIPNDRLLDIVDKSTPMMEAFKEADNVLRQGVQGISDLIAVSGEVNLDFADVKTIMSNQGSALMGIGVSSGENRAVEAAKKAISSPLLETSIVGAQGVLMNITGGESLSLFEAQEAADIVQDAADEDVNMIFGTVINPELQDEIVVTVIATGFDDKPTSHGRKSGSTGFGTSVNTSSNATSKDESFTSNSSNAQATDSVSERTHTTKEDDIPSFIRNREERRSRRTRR
Source text: Test B. Determining the FtsZ GTPase Inhibitory Activities of Compounds of the Invention.
Compound-induced inhibition of the FtsZ GTPase activity can be tested using a colorimetric assay in which the inorganic phosphate (Pi) released upon FtsZ-catalyzed hydrolysis of GTP reacts with malachite green and molybdate under acidic conditions to form a ternary complex that absorbs light at 650 nm, thus enabling quantitation of Pi levels by recording the absorbance at 650 nm (A650). All reactions are conducted in triplicate in 96-well microtiter plates. Differing concentrations (ranging from 0 to 1.5 mM) of compound are combined with 1 mM GTP and 20 mM CaCl2, the latter being used because FtsZ GTPase activity requires the presence of Ca2+ ions. The reactions will be initiated by addition of 2 μM FtsZ and allowed to incubate for 60 minutes at room temperature. Following incubation, the reactions will be stopped by adding 80 μl of an acidic malachite green-molybdate solution containing 0.3 mg/ml malachite green oxalate, 2 mg/ml sodium molybdate, 0.5 mg/ml Triton X-100, and 0.7 N HCl. […] Ten minutes following addition of the acidic malachite green-molybdate solution, the A650 value for each reaction are recorded using a microtiter plate reader. […] This standard curve is then fit by linear regression analysis to yield the quantitative relationship between A650 and Pi concentration. […]

SMILES	MIC [1] [µg/mL]	MIC [2] [µg/mL]	IC50 [3] [µM]
COc1cc2cc(-c3cccc(-c4ccccc4)c3)nc(NCCN)c2cc1OC [Example 9]	≤ 8		
COc1cc2cc(-c3cc(-c4ccccc4)cc(-c4ccccc4)c3)nc(N=C(N)N)c2cc1OC [Example 3]	≤ 32		
COc1cc2cc(-c3cccc(-c4ccccc4)c3)nc(N=C(N)N)c2cc1OC [Example 7]	≤ 8		
COc1cc2cc(-c3cccc(-c4ccccc4)c3)[n+](C)c(N(C)C)c2cc1OC.[I-] [Example 5]	≤ 8		

Next, values leading:

MIC [1] [µg/mL]	MIC [2] [µg/mL]	IC50 [3] [µM]	SMILES
≤ 8	≤ 8		COc1cc2cc(-c3cccc(C(C)(C)C)c3)nc(CN=C(N)N)c2cc1OC [Example 13]
≤ 8			COc1cc2cc(-c3cccc(C(C)(C)C)c3)nc(C/N=C(/C)N)c2cc1OC [Example 23]
≤ 8		< 100	COc1cc(-c2cc3ccccc3c[n+]2C)cc(-c2cccc(-c3ccc(F)cc3)c2)c1OC.[I-] [Example 22]
≤ 8	≤ 8	< 100	COc1cc(-c2cc3cc(OC)c(OC)c(OC)c3c(C)[n+]2C)cc(-c2cc(-c3ccc(F)cc3)cc(-c3ccc(F)cc3)c2)c1OC.[I-] [Example 19]
≤ 8	≤ 8		COc1cc(-c2cc3cc(OC)c(OC)c(OC)c3c(C)[n+]2C)cc(-c2cccc(-c3ccc(F)cc3)c2)c1OC.[I-] [Example 15]
